Literature values as cited in patent publication US6509030B2, “Cultured fish carotenoid and polyphenol added feed for improving fish body color tone and fish meat brilliance” (Toshiyuki Sakiura, priority 2000, dated 2003).

chemical stability, acidic (acidic): very unstable | chemical stability, basic (basic): Unstable | chemical stability, neutral (neutral): Unstable
Compound: CC1=C(/C=C/C(C)=C/C=C/C(C)=C/C=C/C=C(C)/C=C/C=C(C)/C=C/C2=C(C)C(=O)[C@@H](O)CC2(C)C)C(C)(C)C[C@H](O)C1=O [Asthaxanthine, asthaxanthine]
